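Dose response: 5 concentrations. Exposure: 48 h. Format: 96-well plates. Endpoint: linear interpolation; highest concentration if not reached. TGI denotes the concentration required for complete inhibition of growth.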 Where a SMILES comes first, the peptide text is derived from it. [ ]: non-standard residue; d: D form. The star is where a group is joined. ξ: configuration not given here. ξD = NC(CC(=O)O)C(=O)O; Ac3c = NC1(C(=O)O)CC1; Boc = CC(C)(C)OC(=O)*; OBn = c1ccc(CO*)cc1
Experiments:
Experiment in all cases: growth of human tumour cells (NCI), 48 h
SR leukemia = system: SR leukemia
A549 NSCLC = system: A549 NSCLC
HS 578T breast = system: HS 578T breast
NCI-H460 lung = system: NCI-H460 lung
HCC-2998 colon = system: HCC-2998 colon
MDA-MB-435 = system: MDA-MB-435
PC-3 prostate = system: PC-3 prostate
NCI-H226 lung = system: NCI-H226 lung
BT-549 breast = system: BT-549 breast
CAKI-1 renal = system: CAKI-1 renal

| Structure (SMILES) | TGI (SR leukemia) [µM] | TGI (A549 NSCLC) [µM] | TGI (HS 578T breast) [µM] | TGI (NCI-H460 lung) [µM] | TGI (HCC-2998 colon) [µM] | TGI (MDA-MB-435) [µM] | TGI (PC-3 prostate) [µM] | TGI (NCI-H226 lung) [µM] | TGI (BT-549 breast) [µM] | TGI (CAKI-1 renal) [µM] |
| --- | --- | --- | --- | --- | --- | --- | --- | --- | --- | --- |
| O=C(NCCCCNCCCNC(=O)c1ccccc1)c1ccccc1 | > 100 | > 100 | > 100 | > 100 | > 100 | > 100 | > 100 | > 100 | > 100 |  |
| COc1ccc(C[C@H](N)C(=O)N2C[C@H](CO)C[C@H](n3cnc4c(N(C)C)ncnc43)C2)cc1 | > 100 | > 100 |  | > 100 | > 100 |  |  | > 100 |  | > 100 |
| O=C(OCCN1CCCCC1)C(c1ccccc1)C1(O)CCSCC1 (stereo not given) | > 100 | > 100 | > 100 | > 100 | > 100 | > 100 | > 100 | > 100 |  | > 100 |
| OCC(O)C1OC2CC1Nc1ccccc1N2 (stereo not given) |  | > 100 | > 100 | > 100 | > 100 | > 100 | > 100 | > 100 |  | > 100 |
| CC(=O)NC1C(OCc2ccccc2)OC(CO)C(O)C1OCC(=O)NC(C)C(=O)NC(CCC(=O)NCCCCCNc1c2ccccc2nc2cccc([N+](=O)[O-])c12)C(N)=O (stereo not given) |  | 0.00142 |  |  | < 0.0001 | < 0.0001 | < 0.0001 | 0.00254 | < 0.0001 | < 0.0001 |
| C=C(CC(=O)Nc1ccc(C(=O)OC)o1)C(=O)OC |  | 35.8 | > 100 | > 100 |  | 59 | 58.9 | 66.8 |  | 41.9 |
| Cc1ccc(S(=O)(=O)NC(=O)NCCC(=O)O)cc1 | > 100 | > 100 | > 100 | > 100 |  |  | > 100 |  | > 100 |  |
| NCCNCCCCCCNC(=O)c1cccc2cc3ccccc3nc12 |  | 5.63 | 6 | 2.98 | 6.79 | 11.9 | 8.79 | 5.02 | 25.2 | 18.5 |
| COc1ccc(C[C@H](N)C(=O)N2C[C@H](CO)C[C@H](n3ccc(=O)[nH]c3=O)C2)cc1 | > 100 | > 100 |  | > 100 | > 100 |  |  | > 100 |  | > 100 |
| O=C1C=C2CO[C@H]3OC[C@H](O)[C@@H]1[C@@H]23 | 63.1 | > 100 | > 100 | > 100 | > 100 | > 100 | > 100 |  | > 100 | 89 |
| NS(=O)(=O)c1ccc(Nc2c3ccccc3nc3c(C(=O)NCCCN(CCO)CCO)cccc23)cc1 | 40.6 | 69.2 | 53.8 | 36.9 | 54.8 | 37.2 | > 100 |  | 52.7 | > 100 |
| Cc1cc2ccccc2n1CC(=O)N1CCCC1 | > 100 | > 100 | > 100 | > 100 | > 100 | > 100 | > 100 | > 100 | > 100 |  |
| O=C(CN1CCCCC1)c1ccc2c(c1)Sc1ccccc1O2 | 75.1 | 29.1 | 21.6 | 29.5 | 37 | 33.9 | 24.4 | 29 |  | 37.2 |
| COc1ccc2c(c1)nc1n2C(N)=Nc2ccccc2S1 |  | > 100 | > 100 | > 100 | > 100 | > 100 | > 100 | > 100 | > 100 | > 100 |
| COc1ccccc1NC(=S)N/N=C(/C)c1ccccn1 |  | > 55.3 | > 100 | 3.22 | > 100 | > 100 | > 100 |  |  | > 100 |
| CCOC(=O)CCc1c(C(=O)OCC)[nH]c(/C=C2\NC(=O)C(C)=C2CC)c1C |  | > 100 |  | > 100 |  | > 100 | 63.3 | > 100 |  | 78.7 |
| COC(=O)C1(NC(=O)C(CC(=O)OCc2ccccc2)NC(=O)OC(C)(C)C)CC1 (stereo not given) (Boc-[ξD](OBn)-[Ac3c]-OMe) |  | > 100 | > 100 | > 100 |  | > 100 | > 100 | > 100 | > 100 | > 100 |
| COc1c(OC)c(O)c2c(=O)c(OC)c(-c3ccc4c(c3)OCO4)oc2c1O |  | > 100 | > 100 | > 100 | > 100 | > 100 | > 100 | > 100 | > 100 | > 100 |
| CN(C)CCOC(=O)c1ccc(N)cc1 |  | > 100 | > 100 | > 100 | 31.4 | > 100 | 35.1 | 67.4 | > 100 | > 100 |
| CC(=Nc1c2ccccc2nc2ccccc12)N(C)C | 23.3 | > 100 | 69.8 |  |  | > 100 | 46.8 | 45.7 | 90.7 | > 100 |
| C[C@H](CC[C@@H](O)C(C)(C)O)[C@H]1CC[C@@]2(C)[C@@H]3CC=C4[C@@H](CC[C@H](O)C4(C)C)[C@]3(C)C(=O)C[C@]12C | > 50 | > 50 | > 50 | > 50 |  | > 50 | 45.4 | > 50 | > 50 |  |
| CCc1nn(S(=O)(=O)c2ccc(C)cc2)c2c1CS(=O)(=O)CC2 |  | > 100 | 87.7 | > 100 |  | > 100 | > 100 |  | > 100 | > 100 |
| C[C@@H]1C[C@]2(C[C@@H](C)[C@H]3C(C[C@@]4(C)CCC[C@@H]5C6=C[C@H](CCC34C)OC6=CC(=O)OC5(C)C)O2)OC1=O (stereo not given in full) |  | > 51.5 |  | > 51.5 | > 51.5 |  |  |  |  | > 51.5 |
| Cc1cc(Nc2ccc(N=Nc3ccc(O)c4ncccc34)cc2)nc(C)n1 | > 100 | 38.3 | > 59.4 | 38 |  | 29.6 | > 69.9 | 44.1 | > 84.4 | 71 |
| CO/C(=N\N=C\c1ccc(Cl)cc1Cl)c1ccncc1 | > 10 | > 10 |  | > 10 |  | > 10 | > 10 | > 10 | > 10 | > 10 |

From PubChem BioAssay (NCI)
